Measurements from article PMC12337661, “PIEZO1 mechanical insensitivity in generalized lymphatic dysplasia with the potential for pharmacological rescue” (iScience, 2025).

Molecular target: T1, WT mPIEZO1 (Mus musculus, UniProt E2JF22)
T1 construct: expressed in transfected cells
Assay: Long substance exposure and hypo-osmolality protocol Ca2+ assay
Format: cell-based
Settings: 10 µM
Protocol: For intracellular Ca^2+ assays, cells were plated at 80–90% confluence in 96-well plates 24 h prior to recordings (6–8 × 10^4 cells per well). […] Cells were washed with SBS and incubated at room temperature for 20 min prior to recordings. Equal volumes of 2x concentrated compounds were injected to test for acute channel activation. Pre-incubation with compounds occurred during the 20 min prior to recordings. To expose cell membranes to hypo-osmolality, an equal volume of hypotonic SBS (containing only 35 mM NaCl) was injected onto the cells. Measurements were made on a fluorescence plate reader (Flexstation III, Molecular Devices) at room temperature (21 ± 2°C). Fura-2 was excited at 340 nm and 380 nm and emitted light collected at 510 nm, with measurements shown as the change in fluorescence (F) ratio (ΔF340/380).
SI Figure S5: Hypo-osm ol al it y test in the Ca2+ assay, referred to in the main paper
(a) Typical 96-well plate mean ± s.e.m. data for changes in intracellular Ca2+ evoked by hypotonic (35 mM NaCl) or normotonic (135 mM NaCl) medium for WT- or Empty vector-transfected cells in increasing concentrations of Yoda1 as indicated and colour -coded on t he right (representative of n = 3-6 independent experiments). […]

T1 sequence (E2JF22 whole entry): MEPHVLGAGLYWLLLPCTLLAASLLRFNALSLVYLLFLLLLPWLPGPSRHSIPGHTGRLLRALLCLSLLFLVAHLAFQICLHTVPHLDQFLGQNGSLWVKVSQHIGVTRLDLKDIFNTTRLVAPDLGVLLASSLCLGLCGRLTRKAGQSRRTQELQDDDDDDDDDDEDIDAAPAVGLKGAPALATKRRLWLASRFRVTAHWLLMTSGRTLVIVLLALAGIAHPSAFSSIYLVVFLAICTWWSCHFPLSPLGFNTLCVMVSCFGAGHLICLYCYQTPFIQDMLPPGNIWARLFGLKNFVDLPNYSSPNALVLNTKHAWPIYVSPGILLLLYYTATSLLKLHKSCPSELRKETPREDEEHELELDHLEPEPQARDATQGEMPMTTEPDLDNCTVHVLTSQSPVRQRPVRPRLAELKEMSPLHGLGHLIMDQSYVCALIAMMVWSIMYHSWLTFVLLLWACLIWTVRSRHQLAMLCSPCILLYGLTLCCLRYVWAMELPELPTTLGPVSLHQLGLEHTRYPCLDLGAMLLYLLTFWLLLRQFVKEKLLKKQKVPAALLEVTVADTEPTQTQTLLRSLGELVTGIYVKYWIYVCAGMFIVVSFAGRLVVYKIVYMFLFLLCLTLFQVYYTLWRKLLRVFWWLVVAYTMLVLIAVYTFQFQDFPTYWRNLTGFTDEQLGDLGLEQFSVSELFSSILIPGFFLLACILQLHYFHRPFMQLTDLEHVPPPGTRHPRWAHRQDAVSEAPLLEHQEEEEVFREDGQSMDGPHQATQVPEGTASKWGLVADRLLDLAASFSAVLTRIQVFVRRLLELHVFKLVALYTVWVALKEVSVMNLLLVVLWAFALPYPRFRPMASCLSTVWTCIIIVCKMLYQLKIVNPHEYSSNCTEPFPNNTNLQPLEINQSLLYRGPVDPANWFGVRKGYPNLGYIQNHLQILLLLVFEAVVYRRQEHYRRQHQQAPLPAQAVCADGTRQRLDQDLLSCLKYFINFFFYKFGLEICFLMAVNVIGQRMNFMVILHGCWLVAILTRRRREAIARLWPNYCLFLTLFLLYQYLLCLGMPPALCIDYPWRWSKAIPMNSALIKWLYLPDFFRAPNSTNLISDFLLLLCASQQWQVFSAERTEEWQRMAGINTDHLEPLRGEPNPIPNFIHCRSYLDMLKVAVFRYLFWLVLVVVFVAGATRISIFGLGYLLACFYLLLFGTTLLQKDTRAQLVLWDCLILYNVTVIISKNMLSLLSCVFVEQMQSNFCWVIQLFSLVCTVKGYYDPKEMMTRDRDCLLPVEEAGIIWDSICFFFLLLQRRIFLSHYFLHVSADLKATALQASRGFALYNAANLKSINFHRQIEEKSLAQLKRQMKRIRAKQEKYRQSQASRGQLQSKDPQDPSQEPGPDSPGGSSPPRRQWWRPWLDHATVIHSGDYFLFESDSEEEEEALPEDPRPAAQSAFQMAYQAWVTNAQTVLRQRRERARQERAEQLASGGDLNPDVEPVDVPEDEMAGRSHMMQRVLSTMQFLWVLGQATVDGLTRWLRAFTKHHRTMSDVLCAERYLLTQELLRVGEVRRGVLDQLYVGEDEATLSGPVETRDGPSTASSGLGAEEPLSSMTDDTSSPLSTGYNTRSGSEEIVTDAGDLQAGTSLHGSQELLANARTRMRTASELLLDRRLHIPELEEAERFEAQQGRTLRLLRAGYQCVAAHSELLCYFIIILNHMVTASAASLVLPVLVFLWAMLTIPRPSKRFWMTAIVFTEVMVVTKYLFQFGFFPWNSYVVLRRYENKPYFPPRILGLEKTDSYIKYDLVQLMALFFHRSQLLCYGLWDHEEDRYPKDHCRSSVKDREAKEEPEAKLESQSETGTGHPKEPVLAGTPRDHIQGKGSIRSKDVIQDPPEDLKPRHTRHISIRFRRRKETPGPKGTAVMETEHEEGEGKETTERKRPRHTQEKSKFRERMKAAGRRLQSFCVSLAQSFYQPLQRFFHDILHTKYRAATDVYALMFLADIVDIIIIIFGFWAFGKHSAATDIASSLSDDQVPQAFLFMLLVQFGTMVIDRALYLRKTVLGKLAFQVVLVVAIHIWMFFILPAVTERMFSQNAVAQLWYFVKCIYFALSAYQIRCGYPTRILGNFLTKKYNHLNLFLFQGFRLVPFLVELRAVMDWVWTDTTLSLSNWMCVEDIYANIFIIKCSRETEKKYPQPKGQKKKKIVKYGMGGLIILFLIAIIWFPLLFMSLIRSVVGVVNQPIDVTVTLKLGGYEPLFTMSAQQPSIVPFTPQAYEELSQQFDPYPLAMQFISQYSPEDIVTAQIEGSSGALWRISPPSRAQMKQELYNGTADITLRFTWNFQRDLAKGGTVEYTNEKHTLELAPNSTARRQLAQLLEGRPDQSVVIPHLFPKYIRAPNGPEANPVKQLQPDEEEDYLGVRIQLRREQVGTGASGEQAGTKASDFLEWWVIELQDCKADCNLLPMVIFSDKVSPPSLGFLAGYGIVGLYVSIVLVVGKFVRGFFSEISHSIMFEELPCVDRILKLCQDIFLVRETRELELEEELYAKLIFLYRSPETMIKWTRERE

assay interference: caused a fluorescence artefact
Structure (SMILES): Nc1ccc(-c2nnc(SCc3c(Cl)cccc3Cl)s2)cc1 [KC146, 4-(5-((2,6-dichlorobenzyl)thio)-1,3,4-thiadiazol-2-yl)aniline]
